Laboratory results as given in the supplement of paper PMC8960247.
± gives the standard error.

Assays:
[1] = test system: 621-103 (TSC2-rescued); assay: relative viability vs DMSO; higher = less cytotoxic; conditions: serum: 10% FBS, 72 h
[2] = test system: 621-102 (TSC2-deficient); assay: as above; conditions: serum: 10% FBS, 72 h
[3] = test system: UMB1949 (TSC2-deficient); assay: relative viability vs DMSO (fraction); higher = less cytotoxic; conditions: serum: 0.1% FBS, 72 h;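 note: renal angiomyolipoma cell lines screened in 384-well plates, viability normalized per plate to DMSO-treated cells, each plate carrying 50 nM rapamycin and 1 µM staurosporine controls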
[4] = test system: 621-102 (TSC2-deficient); assay: as above; conditions: serum: 0.1% FBS, 72 h

CC1(C)CC(=O)c2c(C(F)(F)F)nn(-c3ccc(C(N)=O)c(N[C@H]4CC[C@H](O)CC4)c3)c2C1 [SNX-2112]
relative viability ([1]; 0.0001 µM): 112 ± 4%
relative viability ([1]; 0.001 µM): 111 ± 1.2%
relative viability ([1]; 0.01 µM): 84.4 ± 1.3%
relative viability ([1]; 0.1 µM): 7.98 ± 0.57%
relative viability ([1]; 1 µM): 6.9 ± 0.43%
relative viability ([1]; 10 µM): 6.78 ± 0.53%
relative viability ([2]; 0.0001 µM): 60.2 ± 9.5%
relative viability ([2]; 0.001 µM): 66.4 ± 8.2%
relative viability ([2]; 0.01 µM): 45.4 ± 5.8%
relative viability ([2]; 0.1 µM): 21.9 ± 0.44%
relative viability ([2]; 1 µM): 18.9 ± 2.6%
relative viability ([2]; 10 µM): 14.8 ± 0.6%
relative viability ([3]; 0.0128 nM): 0.771
relative viability ([3]; 0.064 nM): 0.292
relative viability ([3]; 0.32 nM): 0.334
relative viability ([3]; 1.6 nM): 0.0113
relative viability ([3]; 8 nM): 0.00964
relative viability ([3]; 40 nM): 0.00549
relative viability ([3]; 200 nM): 0.00248
relative viability ([3]; 1000 nM): 0.00255
relative viability ([3]; 5000 nM): 0.00394
relative viability ([4]; 0.0128 nM): 0.829
relative viability ([4]; 0.064 nM): 0.471
relative viability ([4]; 0.32 nM): 0.381
relative viability ([4]; 1.6 nM): 0.19
relative viability ([4]; 8 nM): 0.232
relative viability ([4]; 40 nM): 0.0887
relative viability ([4]; 200 nM): 0.0644
relative viability ([4]; 1000 nM): 0.0224
relative viability ([4]; 5000 nM): 0.0194

CC(C)C[C@H](NC(=O)CNC(=O)c1cc(Cl)ccc1Cl)B1OC(=O)C(CC(=O)O)(CC(=O)O)O1 [MLN9708]
relative viability ([1]; 0.0001 µM): 99.131 ± 0.04%
relative viability ([1]; 0.001 µM): 98.8 ± 0.59%
relative viability ([1]; 0.01 µM): 102 ± 2.2%
relative viability ([1]; 0.1 µM): 4.63 ± 0.36%
relative viability ([1]; 1 µM): 1.63 ± 0.029%
relative viability ([1]; 10 µM): 0.886 ± 0.074%
relative viability ([2]; 0.0001 µM): 103 ± 2.1%
relative viability ([2]; 0.001 µM): 104 ± 2.3%
relative viability ([2]; 0.01 µM): 107 ± 4.3%
relative viability ([2]; 0.1 µM): 21.9 ± 4.2%
relative viability ([2]; 1 µM): 3.28 ± 0.3%
relative viability ([2]; 10 µM): 2.38 ± 0.081%
relative viability ([3]; 0.0128 nM): 1.05
relative viability ([3]; 0.064 nM): 1.02
relative viability ([3]; 0.32 nM): 1.01
relative viability ([3]; 1.6 nM): 1.02
relative viability ([3]; 8 nM): 1
relative viability ([3]; 40 nM): 0.0169
relative viability ([3]; 200 nM): 0.00139
relative viability ([3]; 1000 nM): 0.00101
relative viability ([3]; 5000 nM): 0.000797
relative viability ([4]; 0.0128 nM): 1.35
relative viability ([4]; 0.064 nM): 1.13
relative viability ([4]; 0.32 nM): 1.2
relative viability ([4]; 1.6 nM): 1.17
relative viability ([4]; 8 nM): 1
relative viability ([4]; 40 nM): 0.392
relative viability ([4]; 200 nM): 0.0117
relative viability ([4]; 1000 nM): 0.00236
relative viability ([4]; 5000 nM): 0.000667

Cc1cc(Nc2cc(CN3CCOCC3)c3nc(C)c(Cc4ccc(Cl)cc4F)n3n2)n[nH]1
relative viability ([1]; 0.0001 µM): 106.8 ± 0.47%
relative viability ([1]; 0.001 µM): 96.94 ± 0.68%
relative viability ([1]; 0.01 µM): 90.05 ± 0.81%
relative viability ([1]; 0.1 µM): 98.4 ± 5.3%
relative viability ([1]; 1 µM): 87.2 ± 2.1%
relative viability ([1]; 10 µM): 8.52 ± 0.44%
relative viability ([2]; 0.0001 µM): 109 ± 2.8%
relative viability ([2]; 0.001 µM): 108 ± 1.6%
relative viability ([2]; 0.01 µM): 97.1 ± 3.9%
relative viability ([2]; 0.1 µM): 101 ± 1.6%
relative viability ([2]; 1 µM): 95.8 ± 1.3%
relative viability ([2]; 10 µM): 26.9 ± 0.53%
relative viability ([3]; 0.0128 nM): 1.1
relative viability ([3]; 0.064 nM): 1
relative viability ([3]; 0.32 nM): 1.03
relative viability ([3]; 1.6 nM): 0.938
relative viability ([3]; 8 nM): 1
relative viability ([3]; 40 nM): 0.885
relative viability ([3]; 200 nM): 0.753
relative viability ([3]; 1000 nM): 0.0134
relative viability ([3]; 5000 nM): 0.000916
relative viability ([4]; 0.0128 nM): 1.15
relative viability ([4]; 0.064 nM): 1.05
relative viability ([4]; 0.32 nM): 1.08
relative viability ([4]; 1.6 nM): 0.98
relative viability ([4]; 8 nM): 1.05
relative viability ([4]; 40 nM): 0.925
relative viability ([4]; 200 nM): 0.787
relative viability ([4]; 1000 nM): 0.014
relative viability ([4]; 5000 nM): 0.000958

NC(=O)Nc1cc(-c2cccc(F)c2)sc1C(=O)N[C@H]1CCCNC1 [AZD7762]
relative viability ([1]; 0.0001 µM): 99 ± 1.1%
relative viability ([1]; 0.001 µM): 98.96 ± 0.94%
relative viability ([1]; 0.01 µM): 98.3 ± 0.4%
relative viability ([1]; 0.1 µM): 83.6 ± 0.97%
relative viability ([1]; 1 µM): 22.27 ± 0.029%
relative viability ([1]; 10 µM): 3.24 ± 0.41%
relative viability ([2]; 0.0001 µM): 102 ± 4.3%
relative viability ([2]; 0.001 µM): 108 ± 1.8%
relative viability ([2]; 0.01 µM): 88.76 ± 0.17%
relative viability ([2]; 0.1 µM): 32.13 ± 0.32%
relative viability ([2]; 1 µM): 17.1 ± 0.87%
relative viability ([2]; 10 µM): 6.55 ± 0.31%
relative viability ([3]; 0.0128 nM): 0.976
relative viability ([3]; 0.064 nM): 0.981
relative viability ([3]; 0.32 nM): 1.07
relative viability ([3]; 1.6 nM): 1.08
relative viability ([3]; 8 nM): 0.341
relative viability ([3]; 40 nM): 0.00441
relative viability ([3]; 200 nM): 0.00215
relative viability ([3]; 1000 nM): 0.000402
relative viability ([3]; 5000 nM): 0.00128
relative viability ([4]; 0.0128 nM): 0.981
relative viability ([4]; 0.064 nM): 0.92
relative viability ([4]; 0.32 nM): 0.935
relative viability ([4]; 1.6 nM): 0.731
relative viability ([4]; 8 nM): 0.244
relative viability ([4]; 40 nM): 0.0116
relative viability ([4]; 200 nM): 0.00396
relative viability ([4]; 1000 nM): 0.000482
relative viability ([4]; 5000 nM): 0.00108
